Experimental findings from PubChem BioAssay AID330 (DTP/NCI, 2004) are described below.

Inconclusive results and toxic doses are left out.

In the assay the test system is P388 leukemia ip, CD2F1 mice, survival T/C. Briefly: NCI In Vivo Anticancer Drug Screen. Data for tumor model P388 Leukemia (intraperitoneal) in CD2F1 (CDF1) mice. As to conditions: endpoint: median survival time, higher = longer survival. In a few lines:
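Mice carrying the transplanted tumor received test compound or vehicle. Survival was recorded in each group, and the value is the treated-group measurement divided by that of the vehicle-treated control group.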

The mark [1] stands for this setting: dose: 100.0 mg/kg/injection, schedule: Q01DX001 (ip), vehicle: Klucel (hydroxypropylcellulose) (HPC).
[2] abbreviates: dose: 200.0 mg/kg/injection, schedule: Q01DX001 (ip), vehicle: Klucel (hydroxypropylcellulose) (HPC).
[3] abbreviates: dose: 400.0 mg/kg/injection, schedule: Q01DX001 (ip), vehicle: Klucel (hydroxypropylcellulose) (HPC).
Setting [4] is: dose: 200.0 mg/kg/injection, schedule: Q01DX005 (ip), vehicle: saline with Tween-80.
[5] abbreviates: dose: 50.0 mg/kg/injection, schedule: Q01DX009 (ip), vehicle: saline with Tween-80.
[6] abbreviates: dose: 100.0 mg/kg/injection, schedule: Q01DX009 (ip), vehicle: saline with Tween-80.
Setting [7] is: dose: 200.0 mg/kg/injection, schedule: Q01DX009 (ip), vehicle: saline with Tween-80.
The mark [8] stands for this setting: dose: 50.0 mg/kg/injection, schedule: Q01DX005 (ip), vehicle: Klucel (hydroxypropylcellulose) (HPC).
Setting [9] is: dose: 100.0 mg/kg/injection, schedule: Q01DX005 (ip), vehicle: Klucel (hydroxypropylcellulose) (HPC).
Where [10] appears, read: dose: 200.0 mg/kg/injection, schedule: Q01DX005 (ip), vehicle: Klucel (hydroxypropylcellulose) (HPC).
The mark [11] stands for this setting: dose: 60.0 mg/kg/injection, schedule: Q01DX005 (ip), vehicle: saline with Tween-80.

With `Cc1c2c(c(C)c3ccccc13)C(O)C(O)c1ccccc1-2` (stereo not drawn), the T/C was 91 % of control under setting [1], 91 % of control under setting [2] and 99 % of control under setting [3].
Consider `Cc1c2oc3c(C)c(N)cc(C(=O)NC4C(=O)NC(C(C)C)C(=O)N5CCCC5C(=O)N(C)CC(=O)N(C)C(C(C)C)C(=O)OC4C)c3nc-2c(C(=O)NC2C(=O)NC(C(C)C)C(=O)N3CCCC3C(=O)N(C)CC(=O)N(C)C(C(C)C)C(=O)OC2C)c(N)c1=O` (stereo not drawn), for which the T/C is 102 % of control (dose: 0.01 mg/kg/injection, schedule: Q01DX009 (ip), vehicle: Klucel (hydroxypropylcellulose) (HPC)); 110 % of control (dose: 0.02 mg/kg/injection, schedule: Q01DX009 (ip), vehicle: Klucel (hydroxypropylcellulose) (HPC)); 115 % of control (dose: 0.04 mg/kg/injection, schedule: Q01DX009 (ip), vehicle: Klucel (hydroxypropylcellulose) (HPC)); 93 % of control (dose: 0.08 mg/kg/injection, schedule: Q01DX009 (ip), vehicle: Klucel (hydroxypropylcellulose) (HPC)); 190 % of control (dose: 0.3 mg/kg/injection, schedule: Q01DX009 (ip), vehicle: Klucel (hydroxypropylcellulose) (HPC)).
Regarding `CCOC(=O)CC1(O)CS/C(=C(\C#N)C(=O)OCC)S1` (stereo not drawn), the T/C is 102 % of control (dose: 50.0 mg/kg/injection, schedule: Q01DX005 (ip), vehicle: saline with Tween-80); 102 % of control (dose: 100.0 mg/kg/injection, schedule: Q01DX005 (ip), vehicle: saline with Tween-80); 98 % of control under setting [4].
Consider `CCCCCCCCCCCCCCCCN1c2ccccc2C(C)(C)C12C=Cc1cccc([N+](=O)[O-])c1O2` (stereo not drawn), for which the T/C is 92 % of control under setting [5], 93 % of control under setting [6] and 88 % of control under setting [7].
On to `O=C1c2ccccc2C(=O)N1/N=[N+](\[O-])c1ccccc1`, for which the T/C by setting is: (dose: 25.0 mg/kg/injection, schedule: Q01DX005 (ip), vehicle: Klucel (hydroxypropylcellulose) (HPC)) 105 % of control; under setting [8], 88 % of control; under setting [9], 106 % of control; under setting [10], 110 % of control.
On to `c1ccc2c(c1)nc1n2CC2(CO1)COc1nc3ccccc3n1C2`, for which the T/C runs as follows: under setting [5], 99 % of control; under setting [6], 99 % of control; under setting [7], 104 % of control.
As to `COc1ccc2c(c1)OC(C)(C)C(c1ccccc1)=C2c1ccc2c(c1)NCCO2`, the T/C is 99 % of control (dose: 15.0 mg/kg/injection, schedule: Q01DX005 (ip), vehicle: saline with Tween-80); 91 % of control (dose: 30.0 mg/kg/injection, schedule: Q01DX005 (ip), vehicle: saline with Tween-80); 91 % of control under setting [11].
As for `OCC1OC(n2cnc3c2NC=NC[C@H]3O)C(O)C1O` (stereo partly drawn), the T/C is 106 % of control (dose: 0.1 mg/kg/injection, schedule: Q01DX009 (ip), vehicle: saline); 104 % of control (dose: 0.2 mg/kg/injection, schedule: Q01DX005 (ip), vehicle: saline); 111 % of control (dose: 0.2 mg/kg/injection, schedule: Q01DX009 (ip), vehicle: saline); 107 % of control (dose: 0.4 mg/kg/injection, schedule: Q01DX005 (ip), vehicle: saline); 103 % of control (dose: 0.4 mg/kg/injection, schedule: Q01DX009 (ip), vehicle: saline); 99 % of control (dose: 0.78 mg/kg/injection, schedule: Q01DX005 (ip), vehicle: saline). For the same compound, the T/C reads like this: (dose: 0.8 mg/kg/injection, schedule: Q01DX005 (ip), vehicle: saline) 100 % of control; (dose: 1.56 mg/kg/injection, schedule: Q01DX005 (ip), vehicle: saline) 97 % of control.
Turning to `NNC(=S)NCCN1CCOCC1`, the T/C was 105 % of control (dose: 50.0 mg/kg/injection, schedule: Q01DX005 (ip), vehicle: saline); 105 % of control (dose: 100.0 mg/kg/injection, schedule: Q01DX005 (ip), vehicle: saline); 100 % of control (dose: 200.0 mg/kg/injection, schedule: Q01DX005 (ip), vehicle: saline).
Turning to `CC(=O)OCCSCCO`, the T/C was 94 % of control (dose: 25.0 mg/kg/injection, schedule: Q01DX009 (ip), vehicle: water); 99 % of control (dose: 50.0 mg/kg/injection, schedule: Q01DX009 (ip), vehicle: water); 99 % of control (dose: 100.0 mg/kg/injection, schedule: Q01DX009 (ip), vehicle: water); 104 % of control (dose: 200.0 mg/kg/injection, schedule: Q01DX009 (ip), vehicle: water); 99 % of control (dose: 400.0 mg/kg/injection, schedule: Q01DX009 (ip), vehicle: water).
With `O=C/C=C/c1ccc([N+](=O)[O-])cc1Cl`, the T/C is 104 % of control (dose: 25.0 mg/kg/injection, schedule: Q01DX009 (ip), vehicle: saline with Tween-80); 106 % of control under setting [5]; 115 % of control (dose: 50.0 mg/kg/injection, schedule: Q01DX009 (ip), vehicle: saline); 106 % of control under setting [6]; 124 % of control (dose: 100.0 mg/kg/injection, schedule: Q01DX009 (ip), vehicle: saline); 124 % of control (dose: 200.0 mg/kg/injection, schedule: Q01DX009 (ip), vehicle: saline).
Regarding `NC(=S)N/N=C/c1c(Br)nc2sccn12`, the T/C is 97 % of control under setting [1], 89 % of control under setting [2] and 89 % of control under setting [3].
Take `CC(OCc1ccccc1)C(NC(=O)OC(C)(C)C)C(=O)ON1C(=O)CCC1=O` (stereo not drawn): the T/C reads like this: under setting [8], 109 % of control; under setting [9], 105 % of control; under setting [10], 96 % of control.
As to `CSC(=S)N/N=C/c1nccc2ccccc12`, the T/C by setting is: (dose: 100.0 mg/kg/injection, schedule: Q01DX001 (ip), vehicle: saline with Tween-80) 112 % of control; (dose: 200.0 mg/kg/injection, schedule: Q01DX001 (ip), vehicle: saline with Tween-80) 108 % of control; (dose: 400.0 mg/kg/injection, schedule: Q01DX001 (ip), vehicle: saline with Tween-80) 116 % of control.
For `CCOC(=O)CC1C(=O)N(c2nc(-c3ccc(Br)cc3)cs2)N=C1C` (stereo not drawn), the T/C reads like this: (dose: 50.0 mg/kg/injection, schedule: Q01DX009 (ip), vehicle: Klucel (hydroxypropylcellulose) (HPC)) 96 % of control; (dose: 100.0 mg/kg/injection, schedule: Q01DX009 (ip), vehicle: Klucel (hydroxypropylcellulose) (HPC)) 101 % of control; (dose: 200.0 mg/kg/injection, schedule: Q01DX009 (ip), vehicle: Klucel (hydroxypropylcellulose) (HPC)) 103 % of control.
Take `NC(=O)Nc1ccc(Cl)cc1[N+](=O)[O-]`: the T/C was 99 % of control (dose: 37.5 mg/kg/injection, schedule: Q01DX009 (ip), vehicle: Klucel (hydroxypropylcellulose) (HPC)) and 98 % of control (dose: 75.0 mg/kg/injection, schedule: Q01DX009 (ip), vehicle: Klucel (hydroxypropylcellulose) (HPC)).
Turning to `C=CN1C(=O)N(C=C)C(C)(CC(C)C)C1=O` (stereo not drawn), the T/C is 100 % of control under setting [5], 100 % of control under setting [6] and 112 % of control under setting [7].
On to `C[N+]12CCCCC1CC2` (stereo not drawn), for which the T/C by setting is: (dose: 6.25 mg/kg/injection, schedule: Q01DX009 (ip), vehicle: saline) 89 % of control; (dose: 12.5 mg/kg/injection, schedule: Q01DX009 (ip), vehicle: saline) 88 % of control; (dose: 25.0 mg/kg/injection, schedule: Q01DX009 (ip), vehicle: saline) 91 % of control.
Regarding `CC12CCC(=O)N1c1ccccc1N2` (stereo not drawn), the T/C is, setting by setting: under setting [11], 98 % of control; (dose: 120.0 mg/kg/injection, schedule: Q01DX005 (ip), vehicle: saline with Tween-80) 94 % of control; (dose: 240.0 mg/kg/injection, schedule: Q01DX005 (ip), vehicle: saline with Tween-80) 102 % of control.
Consider `CCN(CC)CCN=c1nc(/C=C\C=C\NN(C)C(=S)SC)c(C)nn1C`, for which the T/C reads like this: (dose: 6.25 mg/kg/injection, schedule: Q01DX005 (ip), vehicle: saline with Tween-80) 103 % of control; (dose: 12.5 mg/kg/injection, schedule: Q01DX005 (ip), vehicle: saline with Tween-80) 87 % of control; (dose: 25.0 mg/kg/injection, schedule: Q01DX005 (ip), vehicle: saline with Tween-80) 89 % of control; under setting [4], 90 % of control.
